In the first test the test system is Utrophin A promoter linked to a luciferase reporter gene. The test can be described thus: Luciferase reporter assay (murine H2K cells), H2K/mdx/Utro A reporter cell line. It is filed as cell-based. Particulars: 48 h; test compound concentration 10 μM; mdx mouse H2K Utrophin A reporter cells; read-out: Activity (luciferase level relative to control). How it is done: Luciferase Reporter Assay (Murine H2K Cells)
The cell line used for the screen is an immortalized mdx mouse H2K cell line that has been stably transfected with a plasmid containing ≈5 kb fragment of the Utrophin A promoter including the first untranslated exon linked to a luciferase reporter gene.
Under conditions of low temperature and interferon containing media, the cells remain as myoblasts. These are plated into 96 well plates and cultured in the presence of compound for three days. The level of luciferase is then determined by cell lysis and reading of the light output from the expressed luciferase gene utilising a plate luminometer.
Luciferase Assay for 96 Well Plates
The H2K/mdx/Utro A reporter cell line cells were plated out into 96 well plates (Falcon 353296, white opaque) at a density of approximately 5000 cells/well in 190 μl normal growth medium. The plates were then incubated at 33° C. in the presence of 10% CO2 for 24 hrs.
Compounds were dosed by adding 10 μl of diluted compound to each well giving a final concentration of 10 μM (where a different final concentration was required, the amount of compound solution added was amended accordingly). The plates were then incubated for a further 48 hrs. Cells were then lysed in situ following the manufacture's protocols (Promega Steady-Glo Luciferase Assay System(E2520). Then counted for 10 seconds using a plate luminometer (Victor1420).
Compounds for screening were stored at −20° C. as 10 mM stocks in 100% DMSO until required.
Biological activity as assessed using the luciferase reporter assay in murine H2K cells, and the results are shown in Table 1, which also lists the concentration of the test compound solution in μM.
In general terms: In a reporter assay the amount or activity of a reporter protein is the signal.
With `CC(C)c1ccc(NC(=O)c2nn(CCOc3ccccc3)c3ccccc23)cc1` [Compound 26, N-(4-isopropylphenyl)-1-(2-phenoxyethyl)-1H-indazole-3-carboxamide], the activity at 10 µM was below 200%. Same read-out and setting: the value for `CC(C)c1ccc(NC(=O)c2nn(Cc3ccc(-c4ccccc4)cc3)c3ccccc23)cc1` [Compound 27, 1-(biphenyl-4-ylmethyl)-N-(4-isopropylphenyl)-1H-indazole-3-carboxamide] was below 200%. On the same count and under the same terms, to `COc1cccc(OCc2ccc(Cn3nc(NC(=O)NCc4ccccc4F)c4ccccc43)cc2)c1` [Compound 28, 1-(2-fluorobenzyl)-3-(1-(4-((3-methoxyphenoxy)methyl)benzyl)-1H-indazol-3-yl)urea] belongs 201 to 300%; to `O=C(Nc1ccccc1C(F)(F)F)Nc1nn(Cc2ccc(COc3ccc4c(c3)OCO4)cc2)c2ccc(C(F)(F)F)cc12` [Compound 29, 1-(1-(4-((benzo[d][1,3]dioxol-5-yloxy)methyl)benzyl)-5-(trifluoromethyl)-1H-indazol-3-yl)-3-(2-(trifluoromethyl)phenyl)urea], below 200%. Same read-out and setting: the value for `COc1cccc(OCc2ccc(Cn3nc(NC(=O)Nc4ccc5c(c4)CCC5)c4ccccc43)cc2)c1` [Compound 30, 1-(2,3-dihydro-1H-inden-5-yl)-3-(1-(4-((3-methoxyphenoxy)methyl)benzyl)-1H-indazol-3-yl)urea] was below 200%.

Turning to `COc1ccc(NC(=O)Nc2nn(Cc3ccc(COc4ccc5c(c4)OCO5)cc3)c3ccc(C(F)(F)F)cc23)c(OC)c1` [Compound 31, 1-(1-(4-((benzo[d][1,3]dioxol-5-yloxy)methyl)benzyl)-5-(trifluoromethyl)-1H-indazol-3-yl)-3-(2,4-dimethoxyphenyl)urea], the activity at 10 µM was below 200%.

`Cc1cccc(CNC(=O)Nc2nn(Cc3cc4c(cc3Cl)OCO4)c3ccccc23)c1` [Compound 32, 1-(1-((6-chlorobenzo[d][1,3]dioxol-5-yl)methyl)-1H-indazol-3-yl)-3-(3-methylbenzyl)urea]: the activity at 10 µM was below 200%. The same measure, in the same setting: to `O=C(Nc1nn(Cc2ccc(CN3C(=O)CCC3=O)cc2)c2ccccc12)c1cnc2ccccc2n1` [Compound 33, N-(1-(4-((2,5-dioxopyrrolidin-1-yl)methyl)benzyl)-1H-indazol-3-yl)quinoxaline-2-carboxamide] belongs below 200%; to `COc1ccc(NC(=O)c2nn(Cc3ccc(S(C)(=O)=O)cc3)c3ccccc23)cc1` [Compound 34, N-(4-methoxyphenyl)-1-(4-(methylsulfonyl)benzyl)-1H-indazole-3-carboxamide], 301 to 400%; to `CS(=O)(=O)c1ccc(Cn2nc(C(=O)Nc3ccc4c(c3)OC(F)(F)O4)c3ccccc32)cc1` [Compound 35, N-(2,2-difluorobenzo[d][1,3]dioxol-5-yl)-1-(4-(methylsulfonyl)benzyl)-1H-indazole-3-carboxamide], below 200%.

For the compound `CON(C)S(=O)(=O)c1ccc(Cn2nc(C(=O)Nc3nccs3)c3ccccc32)cc1` [Compound 36, 1-(4-(N-methoxy-N-methylsulfamoyl)benzyl)-N-(thiazol-2-yl)-1H-indazole-3-carboxamide], the activity at 10 µM was below 200%. Still for that read-out and setting: the value for `COc1ccc(CCNC(=O)Nc2nn(Cc3cc4c(cc3Cl)OCO4)c3ccccc23)cc1` [Compound 37, 1-(1-((6-chlorobenzo[d][1,3]dioxol-5-yl)methyl)-1H-indazol-3-yl)-3-(4-methoxyphenethyl)urea] was below 200%. With `NC(=O)c1ccc(NC(=O)c2nn(Cc3ccc(C(=O)N4CCOCC4)cc3)c3ccccc23)cc1` [Compound 38, N-(4-carbamoylphenyl)-1-(4-(morpholine-4-carbonyl)benzyl)-1H-indazole-3-carboxamide], the activity at 10 µM was in the range of 201 to 300%. Same read-out and setting: the value for `CCN(CC)S(=O)(=O)c1ccc(Cn2nc(C(=O)Nc3ccccn3)c3ccccc32)cc1` [Compound 39, 1-(4-(N,N-diethylsulfamoyl)benzyl)-N-(pyridin-2-yl)-1H-indazole-3-carboxamide] was below 200%; that for `CCN(CC)S(=O)(=O)c1ccc(Cn2nc(C(=O)Nc3ccc4c(c3)C(=O)N(C)C4=O)c3ccccc32)cc1` [Compound 41, 1-(4-(N,N-diethylsulfamoyl)benzyl)-N-(2-methyl-1,3-dioxoisoindolin-5-yl)-1H-indazole-3-carboxamide] was below 200%; that for `CC(C)(C)c1ccc(Cn2nc(C(=O)Nc3ccc4c(c3)OCO4)c3ccccc32)cc1` [Compound 42, N-(benzo[d][1,3]dioxol-5-yl)-1-(4-tert-butylbenzyl)-1H-indazole-3-carboxamide] was above 401%. In the case of `O=C(Nc1ccc(N2CCCCC2)cc1)c1nn(CCOc2ccc(F)cc2)c2ccccc12` [Compound 43, 1-(2-(4-fluorophenoxy)ethyl)-N-(4-(piperidin-1-yl)phenyl)-1H-indazole-3-carboxamide], the activity at 10 µM is below 200%.

For `COc1cccc(OCc2ccc(Cn3nc(NC(=O)NCc4ccccc4OC)c4ccccc43)cc2)c1` [Compound 44, 1-(2-methoxybenzyl)-3-(1-(4-((3-methoxyphenoxy)methyl)benzyl)-1H-indazol-3-yl)urea], the activity at 10 µM was below 200%. Still for that read-out and setting: the value for `O=C(Nc1ccc2c(c1)OCO2)c1nn(CCCOc2ccccc2)c2ccccc12` [Compound 45, N-(benzo[d][1,3]dioxol-5-yl)-1-(3-phenoxypropyl)-1H-indazole-3-carboxamide] was above 401%. Same read-out and setting: the value for `O=C(Nc1ccc2c(c1)OCO2)c1nn(CCOc2ccc(F)cc2)c2ccccc12` [Compound 46, N-(benzo[d][1,3]dioxol-5-yl)-1-(2-(4-fluorophenoxy)ethyl)-1H-indazole-3-carboxamide] was below 200%; that for `O=C(NCc1ccccc1F)Nc1nn(Cc2cc3c(cc2Cl)OCO3)c2ccccc12` [Compound 47, 1-(1-((6-chlorobenzo[d][1,3]dioxol-5-yl)methyl)-1H-indazol-3-yl)-3-(2-fluorobenzyl)urea] was below 200%; that for `CC(C)(C)c1ccc(Cn2nc(C(=O)Nc3ccc4c(c3)OC(F)(F)O4)c3ccccc32)cc1` [Compound 48, 1-(4-tert-butylbenzyl)-N-(2,2-difluorobenzo[d][1,3]dioxol-5-yl)-1H-indazole-3-carboxamide] was below 200%. As to `CON(C)S(=O)(=O)c1ccc(Cn2nc(C(=O)Nc3ccccn3)c3ccccc32)cc1` [Compound 49, 1-(4-(N-methoxy-N-methylsulfamoyl)benzyl)-N-(pyridin-2-yl)-1H-indazole-3-carboxamide], the activity at 10 µM is below 200%. Still for that read-out and setting: the value for `O=C(Nc1ccc2c(c1)OCO2)c1nn(Cc2ccc(-c3ccccc3)cc2)c2ccccc12` [Compound 50, N-(benzo[d][1,3]dioxol-5-yl)-1-(biphenyl-4-ylmethyl)-1H-indazole-3-carboxamide] was below 200%; that for `Cc1cccc(NC(=O)Nc2nn(Cc3ccc(COc4ccc5c(c4)OCO5)cc3)c3ccc(C(F)(F)F)cc23)c1` [Compound 51, 1-(1-(4-((benzo[d][1,3]dioxol-5-yloxy)methyl)benzyl)-5-(trifluoromethyl)-1H-indazol-3-yl)-3-m-tolylurea] was below 200%.

Regarding `COc1cc(NC(=O)Nc2nn(Cc3cc4c(cc3Cl)OCO4)c3ccccc23)cc(OC)c1` [Compound 52, 1-(1-((6-chlorobenzo[d][1,3]dioxol-5-yl)methyl)-1H-indazol-3-yl)-3-(3,5-dimethoxyphenyl)urea], the activity at 10 µM was below 200%. Same read-out and setting: to `O=C(Nc1ccc2c(c1)CCC2)Nc1nn(Cc2ccc(C(F)(F)F)cc2)c2ccccc12` [Compound 53, 1-(2,3-dihydro-1H-inden-5-yl)-3-(1-(4-(trifluoromethyl)benzyl)-1H-indazol-3-yl)urea] belongs below 200%. Still for that read-out and setting: the value for `COc1cccc(OCc2ccc(Cn3nc(NC(=O)Nc4ccc(OC)c(OC)c4)c4ccccc43)cc2)c1` [Compound 54, 1-(3,4-dimethoxyphenyl)-3-(1-(4-((3-methoxyphenoxy)methyl)benzyl)-1H-indazol-3-yl)urea] was below 200%; that for `O=C(NCc1ccco1)Nc1nn(Cc2cc3c(cc2Cl)OCO3)c2ccccc12` [Compound 55, 1-(1-((6-chlorobenzo[d][1,3]dioxol-5-yl)methyl)-1H-indazol-3-yl)-3-(furan-2-ylmethyl)urea] was below 200%; that for `COc1ccc(NC(=O)c2nn(CCOc3ccccc3)c3ccccc23)cc1` [Compound 56, N-(4-methoxyphenyl)-1-(2-phenoxyethyl)-1H-indazole-3-carboxamide] was below 200%. The same measure, in the same setting: the value for `Cc1ccc(NC(=O)Nc2nn(Cc3ccc(COc4ccc5c(c4)OCO5)cc3)c3ccc(C(F)(F)F)cc23)cc1` [Compound 57, 1-(1-(4-((benzo[d][1,3]dioxol-5-yloxy)methyl)benzyl)-5-(trifluoromethyl)-1H-indazol-3-yl)-3-p-tolylurea] was below 200%.

Still in this test, the particulars now being: 48 h; test compound concentration 30 μM; mdx mouse H2K Utrophin A reporter cells; read-out: Activity (luciferase level relative to control).
As to `O=C(Nc1ccccc1OC(F)(F)F)Nc1nn(Cc2ccc(C(F)(F)F)cc2)c2ccccc12` [Compound 40, 1-(2-(trifluoromethoxy)phenyl)-3-(1-(4-(trifluoromethyl)benzyl)-1H-indazol-3-yl)urea], the activity at 30 µM was below 200%.
